SMILES strings stand for the structures. Numbered stars: 1 amine (or outer) side, 2 acyl side, 3 side chain; on linkers, the order of the positions; unused ones are H or OH. Bridge positions count the residues as written; N and C are the ends. Square brackets hold non-standard residues; d marks the D form. Peptide text beside a SMILES is read from it. TATA = O=C(CC[*:1])N1CN(C(=O)CC[*:2])CN(C(=O)CC[*:3])C1; Dopa = N[C@@H](Cc1ccc(O)c(O)c1)C(=O)O; Cba = N[C@@H](CC1CCC1)C(=O)O

T1 sequence (O76036 22-304): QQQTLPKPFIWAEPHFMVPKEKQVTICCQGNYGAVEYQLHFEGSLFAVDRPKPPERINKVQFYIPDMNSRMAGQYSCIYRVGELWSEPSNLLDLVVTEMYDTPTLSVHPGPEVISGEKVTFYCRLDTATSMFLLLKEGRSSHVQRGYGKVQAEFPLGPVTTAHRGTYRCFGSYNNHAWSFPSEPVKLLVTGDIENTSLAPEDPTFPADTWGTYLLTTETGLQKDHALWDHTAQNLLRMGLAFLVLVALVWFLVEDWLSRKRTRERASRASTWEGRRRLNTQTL

This experiment addresses T1, Fc-tagged human NKp46 (Homo sapiens, UniProt O76036).
T1 construct: purchased ACROBiosystems NC1-H5257
Description: NKp46 SPR assay (Method 1 and/or Method 2). It is filed as binding. To be noted: SPR Method 1 and/or Method 2, Table 3B. How it is done:
SPR experiments were performed to determine ka (M^−1s^−1), kd (s^−1), KD (nM) values (where measurable) of various bicyclic peptides to immobilised NKp46.
For analysis of peptide binding to NKp46, a Biacore 3000 instrument was used with a Cytiva Streptavidin chip. Capture of the protein (recombinant human NKp46-Fc fusion biotinylated via Avi-tag) was carried out at 25° C. with HBS-N (10 mM HEPES, 0.15 M NaCl, pH 7.4) as the running buffer and biotinylated NKp46 was captured to a level of 400-800 RU using a dilution of protein to 0.2 μM in buffer. Buffer was then changed to PBS/0.05% Tween 20 and a dilution series of the peptides was prepared in this buffer with a final DMSO concentration of 0.5% with a top peptide concentration of 100 nM-5000 nM and 6 further 2 or 3-fold dilutions. The SPR analysis was run at 25° C. and a flow rate of 50 μl/min with 60 seconds association and 200-400 seconds dissociation time. Data were corrected for DMSO excluded volume effects. All data were double-referenced for blank injections and reference surface using standard processing procedures and data processing and kinetic fitting were performed using Scrubber software, version 2.0c (BioLogic Software). Data were fitted using simple 1:1 binding model allowing for mass transport effects where appropriate.
Peptides were tested against Fc-tagged human NKp46 (ACROBiosystems, cat no. NC1-H5257).
For analysis of peptide binding, a Biacore 8k+ instrument was used with a CM5 chip (Cytiva). All experiments were carried out at 25° C. Anti-human IgG (Fc) antibody (Cytiva) was immobilized on all flow cells by standard amine coupling chemistry. The running buffer was HBS-N(Cytiva, 10 mM HEPES, 0.15 M NaCl, pH 7.4) and the flow rate was 10 μL/min. The carboxymethyl dextran surface was activated with a 1:1 ratio of 0.4 M 1-ethyl-3-(3-dimethylaminopropyl) carbodiimide hydrochloride (EDC)/0.1 M N-hydroxy succinimide (NHS) (Cytiva) for 420s. […] Residual activated groups were blocked with a 420 s injection of 1 M ethanolamine (pH 8.5). The final surface density was 3000-5000 RU. Fc-tagged human NKp46 was diluted to 0.1 μM in HBS-N and was captured on flow cell 2 only of the sensor chip at a flow rate of 10 μL/min to 500-1000 RU. The buffer was then changed to PBS-P+(Cytiva) supplemented with 2% DMSO. […] The flow rate was 50 μL/min with 60 s association and 400 s dissociation. Data were corrected for DMSO volume exclusion effects. All data were double-referenced against blank injections and reference surface response using standard processing procedures. Data processing and kinetic fitting was performed using Biacore Insight Evaluation Software with Extended Screening and Characterization Extension (Cytiva). Data were fitted using steady state affinity 1:1 binding model to determine KD. Data were fitted using kinetic 1:1 binding model to determine kinetic constants where appropriate.
(In general: In SPR one partner is held on a chip, and binding of the other changes the refractive index at the surface.)
Usually Kd stands for the equilibrium constant for the complex coming apart. Compound `CC[C@H](C)[C@@H]1NC(=O)[C@@H]2CSCCC(=O)N3CN(CN(C3)C(=O)CCSC[C@@H](C(=O)N[C@@H](C)C(N)=O)NC(=O)[C@H](C(C)C)NC(=O)CNC(=O)[C@H](Cc3c[nH]c4ccccc34)NC1=O)C(=O)CCSC[C@H](NC(=O)[C@H](C)N)C(=O)N[C@@H](CC(=O)O)C(=O)N[C@@H](CC(C)C)C(=O)N[C@@H]([C@@H](C)O)C(=O)N[C@@H]([C@@H](C)O)C(=O)N[C@@H](Cc1c[nH]cn1)C(=O)N[C@@H](CC(N)=O)C(=O)N2` [BCY14458, A-(SEQ ID NO: 104)-A] (H-ACDLTTHNCIWGVCA-NH2; linker 2-9-14 via TATA; C-terminus assumed) showed a Kd of 1260 nM.

In the case of `CSCC[C@@H]1NC(=O)[C@H](CCCCN)NC(=O)[C@@H]2CCCN2C(=O)[C@H](Cc2c[nH]cn2)NC(=O)[C@H]([C@@H](C)O)NC(=O)[C@H](CC(N)=O)NC(=O)[C@@H]2CCCN2C(=O)[C@@H]2CSCCC(=O)N3CN(CN(C3)C(=O)CCSC[C@@H](C(=O)N[C@@H](C)C(N)=O)NC1=O)C(=O)CCSC[C@H](NC(=O)[C@H](C)N)C(=O)N[C@@H](CC(C)C)C(=O)N[C@@H](CC(C)C)C(=O)N[C@@H](Cc1c[nH]cn1)C(=O)N[C@@H](CC(=O)O)C(=O)N[C@@H](Cc1c[nH]cn1)C(=O)N2` [BCY14457, A-(SEQ ID NO: 103)-A] (H-ACLLHDHCPNTHPKMCA-NH2; linker 2-8-16 via TATA), the Kd stood at 2270 nM. Take `CSCC[C@@H]1NC(=O)[C@@H]2CSCCC(=O)N3CN(CN(C3)C(=O)CCSC[C@@H](C(=O)N[C@@H](C)C(N)=O)NC(=O)[C@@H]3CCCN3C(=O)[C@H](Cc3ccccc3)NC(=O)[C@H](CCCCN)NC1=O)C(=O)CCSC[C@H](NC(=O)[C@H](C)N)C(=O)N[C@@H](CC(N)=O)C(=O)N[C@@H](CC(C)C)C(=O)N[C@@H](CCC(N)=O)C(=O)N[C@@H](CC(N)=O)C(=O)N1CCC[C@H]1C(=O)N2` [BCY15102, A-(SEQ ID NO: 2)-A] (H-ACNLQNPCMKFPCA-NH2; linker 2-8-13 via TATA; C-terminus assumed): the Kd was 1090 ± 99 nM.

`CSCC[C@@H]1NC(=O)[C@@H]2CSCCC(=O)N3CN(CN(C3)C(=O)CCSC[C@@H](C(=O)N[C@@H](C)C(N)=O)NC(=O)[C@H](C(C)C)NC(=O)[C@H](CCCCN)NC(=O)CNC(=O)[C@H]([C@@H](C)O)NC(=O)[C@H](Cc3ccc(O)cc3)NC1=O)C(=O)CCSC[C@H](NC(=O)[C@H](C)N)C(=O)N[C@@H](CC(N)=O)C(=O)N[C@@H](CC(C)C)C(=O)N[C@@H](CCC(N)=O)C(=O)N[C@@H](C)C(=O)N1CCC[C@H]1C(=O)N2` [BCY18318, A-(SEQ ID NO: 80)-A] (H-ACNLQAPCMYTGKVCA-NH2; linker 2-8-15 via TATA) came in with a Kd of 1920 nM. Next, `CC(C)C[C@@H]1NC(=O)[C@@H]2CSCCC(=O)N3CN(CN(C3)C(=O)CCSC[C@@H](C(=O)N[C@@H](C)C(N)=O)NC(=O)[C@H](C(C)C)NC(=O)[C@H](CCCCN)NC(=O)CNC(=O)[C@H]([C@@H](C)O)NC(=O)[C@H](Cc3c[nH]cn3)NC1=O)C(=O)CCSC[C@H](NC(=O)[C@H](C)N)C(=O)N[C@@H](CC(N)=O)C(=O)N[C@@H](CC(C)C)C(=O)N[C@@H](CCC(N)=O)C(=O)N[C@@H](CCC(N)=O)C(=O)N[C@@H](C)C(=O)N2` [BCY14454, A-(SEQ ID NO: 63)-A] (H-ACNLQQACLHTGKVCA-NH2; linker 2-8-15 via TATA; N-terminus assumed): 2760 nM; `CC(=O)N[C@@H]1CSCCC(=O)N2CN3CN(C2)C(=O)CCSC[C@H](NC(=O)[C@H](CC(C)C)NC(=O)[C@H](Cc2ccc(O)cc2)NC(=O)[C@H](CC(=O)O)NC(=O)[C@@H]2CCCN2C(=O)[C@H](CC2CCC2)NC(=O)[C@H](Cc2ccc(O)cc2)NC1=O)C(=O)N[C@H](C)C(=O)N[C@@H](CC(=O)O)C(=O)N[C@@H](CCC(=O)O)C(=O)N[C@@H](Cc1ccc(O)cc1)C(=O)N[C@H](C(N)=O)CSCCC3=O` [BCY19693, Ac-(SEQ ID NO: 157)] (Ac-[dC]Y[Cba]PDYLC[dA]DEYC-NH2; linker 1-8-13 via TATA; C-terminus assumed): 17 nM; `CSCC[C@@H]1NC(=O)[C@@H]2CSCCC(=O)N3CN(CN(C3)C(=O)CCSC[C@@H](C(=O)N[C@@H](C)C(N)=O)NC(=O)[C@H](C(C)C)NC(=O)[C@H](CCCCN)NC(=O)CNC(=O)[C@H]([C@@H](C)O)NC(=O)[C@H](C)NC1=O)C(=O)CCSC[C@H](NC(=O)[C@H](C)N)C(=O)N[C@@H](CC(N)=O)C(=O)N[C@@H](CC(C)C)C(=O)N[C@@H](CCC(N)=O)C(=O)N[C@@H](C)C(=O)N1CCC[C@H]1C(=O)N2` [BCY18301, A-(SEQ ID NO: 65)-A] (H-ACNLQAPCMATGKVCA-NH2; linker 2-8-15 via TATA; C-terminus assumed): 4030 nM. The figure for `CC(=O)N[C@H]1CSCCC(=O)N2CN3CN(C2)C(=O)CCSC[C@H](NC(=O)[C@H](CC(C)C)NC(=O)[C@H](Cc2ccc(O)c(O)c2)NC(=O)[C@H](CC(=O)O)NC(=O)[C@@H]2CCCN2C(=O)[C@H](CC2CCC2)NC(=O)[C@H](Cc2ccc(O)cc2)NC1=O)C(=O)N[C@H](C)C(=O)N[C@@H](CC(=O)O)C(=O)N[C@@H](CCC(=O)O)C(=O)N[C@@H](Cc1ccc(O)cc1)C(=O)N[C@H](C(N)=O)CSCCC3=O` [BCY19686, Ac-(SEQ ID NO: 150)] (Ac-CY[Cba]PD[Dopa]LC[dA]DEYC-NH2; linker 1-8-13 via TATA; C-terminus assumed) is 44 nM. Next, `CC(C)C[C@@H]1NC(=O)[C@H](Cc2ccc(O)cc2)NC(=O)[C@H](CC(=O)O)NC(=O)[C@@H]2CCCN2C(=O)[C@H](CC2CCC2)NC(=O)[C@H](Cc2ccc(O)cc2)NC(=O)[C@@H](NC(=O)[C@H](C)N)CSCCC(=O)N2CN3CN(C2)C(=O)CCSC[C@H](NC1=O)C(=O)N[C@H](C)C(=O)N[C@@H](CC(=O)O)C(=O)N[C@@H](CCC(=O)O)C(=O)N[C@@H](Cc1ccc(O)cc1)C(=O)N[C@H](C(=O)N[C@@H](C)C(N)=O)CSCCC3=O` [BCY16132, A-(SEQ ID NO: 40)-A] (H-ACY[Cba]PDYLC[dA]DEYCA-NH2; linker 2-9-14 via TATA; N-terminus assumed): 3.9 nM; `CC(C)C[C@@H]1NC(=O)[C@H](Cc2ccc(O)cc2)NC(=O)[C@H](CC(=O)O)NC(=O)[C@@H]2CCCN2C(=O)[C@H](CC(C)C)NC(=O)[C@H](Cc2ccc(O)cc2)NC(=O)[C@@H](NC(=O)[C@H](C)N)CSCCC(=O)N2CN3CN(C2)C(=O)CCSC[C@@H](C(=O)N[C@@H](C)C(N)=O)NC(=O)[C@H](Cc2ccc(O)c(C(C)(C)C)c2)NC(=O)[C@H](CCC(=O)O)NC(=O)[C@H](CC(=O)O)NC(=O)CNC(=O)[C@H](CSCCC3=O)NC1=O` [BCY15652, A-(SEQ ID NO: 109)-A]: 44 nM. With `CSCC[C@@H]1NC(=O)[C@@H]2CSCCC(=O)N3CN(CN(C3)C(=O)CCSC[C@@H](C(=O)N[C@@H](C)C(N)=O)NC(=O)[C@H](C(C)C)NC(=O)[C@H](CCCCN)NC(=O)CNC(=O)[C@H]([C@@H](C)O)NC(=O)[C@H](CCC(N)=O)NC1=O)C(=O)CCSC[C@H](NC(=O)[C@H](C)N)C(=O)N[C@@H](CC(N)=O)C(=O)N[C@@H](CC(C)C)C(=O)N[C@@H](CCC(N)=O)C(=O)N[C@@H](C)C(=O)N1CCC[C@H]1C(=O)N2` [BCY15098, A-(SEQ ID NO: 3)-A], the Kd stood at 1070 nM. The figure for `CC[C@H](C)[C@@H]1NC(=O)CNC(=O)[C@H](Cc2c[nH]c3cc(C)ccc23)NC(=O)[C@H](CCC(N)=O)NC(=O)[C@@H]2CSCCC(=O)N3CN(CN(C3)C(=O)CCSC[C@@H](C(=O)N[C@@H](C)C(N)=O)NC1=O)C(=O)CCSC[C@H](NC(=O)[C@H](C)N)C(=O)N[C@@H](CC(=O)O)C(=O)N[C@@H](CC(C)C)C(=O)N[C@@H]([C@@H](C)O)C(=O)N[C@@H]([C@@H](C)O)C(=O)N[C@@H](Cc1c[nH]cn1)C(=O)N[C@@H](CC(N)=O)C(=O)N2` [BCY19722, A-(SEQ ID NO: 160)-A] is 1460 nM; for `CC(C)C[C@@H]1NC(=O)[C@@H](NC(=O)[C@H](C)N)CSCCC(=O)N2CN3CN(C2)C(=O)CCSC[C@H](NC(=O)[C@H](Cc2c[nH]cn2)NC(=O)[C@H](CC(=O)O)NC(=O)[C@H](Cc2c[nH]cn2)NC(=O)[C@H](CC(C)C)NC1=O)C(=O)N1CCC[C@H]1C(=O)N[C@@H](CC(N)=O)C(=O)N[C@@H]([C@@H](C)O)C(=O)N[C@@H](Cc1c[nH]cn1)C(=O)N1CCC[C@H]1C(=O)N[C@@H](CCCCN)C(=O)N[C@@H](CC(C)C)C(=O)N[C@H](C(=O)N[C@@H](C)C(N)=O)CSCCC3=O` [BCY15103, A-(SEQ ID NO: 5)-A] (H-ACLLHDHCPNTHPKLCA-NH2; linker 2-8-16 via TATA) it is 1660 ± 544 nM.

(Values after patent US20240108738A1, “BICYCLIC PEPTIDE LIGANDS SPECIFIC FOR NK CELLS” (Bicycle Tx Limited, priority 2021, published 2024).)
